# Laboratory results: patent publication US11939314B2, “Quinolin-2-one derivatives” (MERCK PATENT GMBH, priority 2016, dated 2024)
# pIC50: −log10 of the molar value.
# Key:
# c-Kit(V654A) = molecular target: T1, c-Kit(V654A) (Homo sapiens, UniProt P10721, V654A); assay: c-Kit(V654A) assay; assay type: biochemical; conditions: recombinant human c-Kit aa 544-end, 200 μM ATP, 1.4E-06 means 1.4×10^−6, read-out: Inhibition (IC50) of c-KIT (V654A)
# T1 construct: amino acids 544-end containing the V654A mutation; GST (N)
# Outline: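 Radiometric filter-binding read-out: substrate 33P incorporation counted by scintillation after P30 filtermat washes in 75 mM phosphoric acid and methanol. Enzyme: N-GST recombinant human c-Kit aa 544-end carrying V654A.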
# PDGFRalpha(V561D) = molecular target: T2, PDGFRalpha(V561D) (Homo sapiens, UniProt P16234, V561D); assay: PDGFRalpha(V561D) assay; assay type: biochemical; conditions: recombinant human PDGFRalpha aa 550-end, 200 μM ATP, 1.4E-06 means 1.4×10^−6, read-out: Inhibition (IC50) of PDGFRα (V561D)
# T2 construct: recombinant human PDGFRalpha, amino acids 550end containing the V561 D mutation; 6His (N)
# Procedure: PDGFRalpha(V561D) (N-terminal 6His-tagged, recombinant human PDGFRalpha, amino acids 550end containing the V561 D mutation) is incubated with 8 mM MOPS pH 7.0, 0.2 mM EDTA, 250 μM GGMEDIYEFMGGKKK, 10 mM MgAcetate and [gamma-33P-ATP] (specific activity approx. 500 cpm/pmol, concentration 200 μM). The reaction is initiated by the addition of the MgATP mix. After incubation for 40 minutes at room temperature, the reaction is stopped by the addition of 3% phosphoric acid solution. 10 μL of the reaction is then spotted onto a P30 filtermat and washed three times for 5 minutes in 75 mM phosphoric acid and once in methanol prior to drying and scintillation counting.
# T2 sequence (P16234 550-1089 V561D): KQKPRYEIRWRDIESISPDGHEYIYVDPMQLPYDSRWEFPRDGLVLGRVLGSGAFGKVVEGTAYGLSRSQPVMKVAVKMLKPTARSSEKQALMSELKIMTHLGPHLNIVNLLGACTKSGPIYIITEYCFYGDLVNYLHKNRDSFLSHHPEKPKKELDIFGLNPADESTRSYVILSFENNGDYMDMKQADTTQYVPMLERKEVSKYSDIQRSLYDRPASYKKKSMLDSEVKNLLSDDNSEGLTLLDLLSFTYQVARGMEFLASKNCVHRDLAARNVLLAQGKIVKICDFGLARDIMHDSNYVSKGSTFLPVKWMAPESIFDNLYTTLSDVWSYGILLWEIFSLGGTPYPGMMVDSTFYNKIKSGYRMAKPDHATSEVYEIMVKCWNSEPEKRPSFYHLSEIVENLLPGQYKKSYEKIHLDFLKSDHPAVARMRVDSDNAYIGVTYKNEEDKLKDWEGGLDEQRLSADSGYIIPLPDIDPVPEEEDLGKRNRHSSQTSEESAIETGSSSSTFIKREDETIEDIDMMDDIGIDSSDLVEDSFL
# T1 sequence (P10721 544-976 V654A): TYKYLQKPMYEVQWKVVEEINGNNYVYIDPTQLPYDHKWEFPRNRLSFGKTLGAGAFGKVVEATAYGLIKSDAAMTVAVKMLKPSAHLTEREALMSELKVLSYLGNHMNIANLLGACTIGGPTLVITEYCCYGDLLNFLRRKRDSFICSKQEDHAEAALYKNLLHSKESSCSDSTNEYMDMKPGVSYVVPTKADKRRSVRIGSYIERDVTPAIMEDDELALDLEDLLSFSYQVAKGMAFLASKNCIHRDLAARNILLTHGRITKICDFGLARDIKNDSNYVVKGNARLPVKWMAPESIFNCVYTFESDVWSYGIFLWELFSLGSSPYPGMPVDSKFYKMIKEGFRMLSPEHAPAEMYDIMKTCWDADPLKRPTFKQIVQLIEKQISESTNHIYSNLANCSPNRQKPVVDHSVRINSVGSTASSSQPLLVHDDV
SMILES,pIC50 (c-Kit(V654A)),pIC50 (PDGFRalpha(V561D))
"COc1cc(-n2cc(-c3cc4ccccc4[nH]c3=O)nn2)cc(OC)c1OC [A38, 3-[1-(3,4,5-trimethoxy-phenyl)-1H-[1,2,3]triazol-4-yl]-1H-quinolin-2-one]",5.49,6.24
"CN(C)C(=O)c1ccc(-n2cc(-c3cc4cccnc4[nH]c3=O)nn2)cc1 [A3, N,N-dimethyl-4-[4-(2-oxo-1,2-dihydro-[1,8]naphthyridin-3-yl)-[1,2,3]triazol-1-yl]-benzamide]",7.28,7.80
"O=C(c1ccc(-n2cc(-c3cc4cc(F)ccc4[nH]c3=O)nn2)cc1)N1CCC(O)CC1 [A183, 6-fluoro-3-{1-[4-(4-hydroxy-piperidine-1-carbonyl)-phenyl]-1H-[1,2,3]triazol-4-yl}-1H-quinolin-2-one]",8.12,7.59
"CO[C@H]1CCN(C(=O)c2ccc(-n3cc(-c4cc5cc(F)c(F)cc5[nH]c4=O)nn3)cc2)C1 [A114, 6,7-difluoro-3-{1-[4-((S)-3-methoxy-pyrrolidine-1-carbonyl)-phenyl]-1H-[1,2,3]triazol-4-yl}-1H-quinolin-2-one]",7.70,6.85
"CN1CCN(C(=O)c2ccc(-n3cc(-c4cc5ccc(Cl)cc5[nH]c4=O)nn3)cc2)CC1 [A154, 7-chloro-3-{1-[4-(4-methyl-piperazine-1-carbonyl)-phenyl]-1H-[1,2,3]triazol-4-yl}-1H-quinolin-2-one]",7.96,8.52
"O=C(c1ccc(-n2cc(-c3cc4cc(F)c(F)cc4[nH]c3=O)nn2)cc1)N1CCC(OCCN2CCOCC2)C1 (stereo not shown) [A221, 6,7-difluoro-3-(1-{4-[3-(2-morpholin-4-yl-ethoxy)-pyrrolidine-1-carbonyl]-phenyl}-1H-[1,2,3]triazol-4-yl)-1H-quinolin-2-one]",6.70,6.42
"COCCO[C@@H]1CCN(C(=O)c2ccc(-n3cc(-c4cc5cc(Cl)ccc5[nH]c4=O)nn3)cc2)C1 [A260, 6-chloro-3-(1-{4-[(R)-3-(2-methoxy-ethoxy)-pyrrolidine-1-carbonyl]-phenyl}-1H-[1,2,3]triazol-4-yl)-1H-quinolin-2-one]",7.29,7.00
"CO[C@@H]1C[C@H](CO)N(C(=O)c2ccc(-n3cc(-c4cc5cc(F)ccc5[nH]c4=O)nn3)cc2)C1 [A244, 6-fluoro-3-{1-[4-((2R,4R)-2-hydroxymethyl-4-methoxy-pyrrolidine-1-carbonyl)-phenyl]-1H-[1,2,3]triazol-4-yl}-1H-quinolin-2-one]",7.44,7.89
"O=C(c1ccc(-n2cc(-c3cc4cc(F)ccc4[nH]c3=O)nn2)cc1)N1CCCC12COC2 [A234, 6-fluoro-3-{1-[4-(2-oxa-5-aza-spiro[3.4]octane-5-carbonyl)-phenyl]-1H-[1,2,3]triazol-4-yl}-1H-quinolin-2-one]",7.30,6.13
"CN(C(=O)[C@@H]1CCCO1)c1ccc(-n2cc(-c3cc4cc(F)ccc4[nH]c3=O)nn2)cc1 [A344, (S)-tetrahydro-furan-2-carboxylic acid {4-[4-(6-fluoro-2-oxo-1,2-dihydro-quinolin-3-yl)-[1,2,3]triazol-1-yl]-phenyl}-methyl-amide]",8.01,7.80
"O=C(c1ccc(-n2cc(-c3cc4cc(F)ccc4[nH]c3=O)nn2)cc1)N1CCNC[C@H]1CO [A315, 6-fluoro-3-{1-[4-((S)-2-hydroxymethyl-piperazine-1-carbonyl)-phenyl]-1H-[1,2,3]triazol-4-yl}-1H-quinolin-2-one]",6.70,5.85
"O=C(c1ccc(-n2cc(-c3cc4ccccc4[nH]c3=O)nn2)cc1)N1CCNCC1 [A50, 3-{1-[4-(piperazine-1-carbonyl)-phenyl]-1H-[1,2,3]triazol-4-yl}-1H-quinolin-2-one]",7.62,7.85
"O=c1[nH]c2ccccc2cc1-c1cn(-c2ccc3nc[nH]c3c2)nn1 [A28, 3-[1-(3H-benzimidazol-5-yl)-1H-[1,2,3]triazol-4-yl]-1H-quinolin-2-one]",7.44,7.54
"CN1CCN(C(=O)Cn2ccc3cc(-n4cc(-c5cc6cc(F)ccc6[nH]c5=O)nn4)ccc32)CC1 [A178, 6-fluoro-3-(1-{1-[2-(4-methyl-piperazin-1-yl)-2-oxo-ethyl]-1H-indol-5-yl}-1H-[1,2,3]triazol-4-yl)-1H-quinolin-2-one]",8.41,8.89
"O=C1COCCN1c1ccc(-n2cc(-c3cc4cc(F)ccc4[nH]c3=O)nn2)cc1F [A33, 6-fluoro-3-{1-[3-fluoro-4-(3-oxo-morpholin-4-yl)-phenyl]-1H-[1,2,3]triazol-4-yl}-1H-quinolin-2-one]",7.70,8.52
"O=C(c1ccc(-n2cc(-c3cc4cc(F)ccc4[nH]c3=O)nn2)cc1)N1CCC[C@H]1CO [A197, 6-fluoro-3-{1-[4-((S)-2-hydroxymethyl-pyrrolidine-1-carbonyl)-phenyl]-1H-[1,2,3]triazol-4-yl}-1H-quinolin-2-one]",7.55,7.49
"CCN(CC)CCNC(=O)c1ccc(-n2cc(-c3cc4cc(F)ccc4[nH]c3=O)nn2)cc1 [A196, N-(2-diethylamino-ethyl)-4-[4-(6-fluoro-2-oxo-1,2-dihydro-quinolin-3-yl)-[1,2,3]triazol-1-yl]-benzamide]",7.36,6.96
"O=C(COc1ccc(-n2cc(-c3cc4cc(F)c(F)cc4[nH]c3=O)nn2)cc1)N1CCNCC1 [A140, 6,7-difluoro-3-{1-[4-(2-oxo-2-piperazin-1-yl-ethoxy)-phenyl]-1H-[1,2,3]triazol-4-yl}-1H-quinolin-2-one]",7.85,7.55
"CN(C)[C@H]1[C@@H]2CN(C(=O)c3ccc(-n4cc(-c5cc6cc(F)ccc6[nH]c5=O)nn4)cc3)C[C@@H]21 [A330, 3-{1-[4-(6-dimethylamino-3-aza-bicyclo[3.1.0]hexane-3-carbonyl)-phenyl]-1H-[1,2,3]triazol-4-yl}-6-fluoro-1H-quinolin-2-one]",7.32,7.68
"O=C(NCCN1CCOCC1)c1ccc(-n2cc(-c3cc4ccccc4[nH]c3=O)nn2)cc1 [A21, N-(2-morpholin-4-yl-ethyl)-4-[4-(2-oxo-1,2-dihydro-quinolin-3-yl)-[1,2,3]triazol-1-yl]-benzamide]",7.10,7.49
"CN(C)[C@@H]1CCCN(C(=O)c2ccc(-n3cc(-c4cc5cc(F)c(F)cc5[nH]c4=O)nn3)cc2)C1 [A328, 3-{1-[4-((R)-3-dimethylamino-piperidine-1-carbonyl)-phenyl]-1H-[1,2,3]triazol-4-yl}-6,7-difluoro-1H-quinolin-2-one]",7.40,7.01
"CN(C(=O)C1CCOCC1)c1ccc(-n2cc(-c3cc4cc(F)ccc4[nH]c3=O)nn2)cc1 [A345, tetrahydro-pyran-4-carboxylic acid {4-[4-(6-fluoro-2-oxo-1,2-dihydro-quinolin-3-yl)-[1,2,3]triazol-111]-phenyl}-methyl-amide]",7.92,5.82
"CO[C@@H]1CN(C(=O)c2ccc(-n3cc(-c4cc5cc(Cl)ccc5[nH]c4=O)nn3)cc2)C[C@H]1OC [A271, 6-chloro-3-{1-[4-((3R,4R)-3,4-dimethoxy-pyrrolidine-1-carbonyl)-phenyl]-1H-[1,2,3]triazol-4-yl}-1H-quinolin-2-one]",7.30,9.29
"CO[C@H]1CN(C(=O)c2ccc(-n3cc(-c4cc5cc(Cl)ccc5[nH]c4=O)nn3)cc2)C[C@@H]1OC [A272, 6-chloro-3-{1-[4-((3S,4S)-3,4-dimethoxy-pyrrolidine-1-carbonyl)-phenyl]-1H-[1,2,3]triazol-4-yl}-1H-quinolin-2-one]",7.32,9.05
"N#Cc1ccc2cc(-c3cn(-c4ccc(C(=O)N5CCOCC5)cc4)nn3)c(=O)[nH]c2c1 [A177, 3-{1-[4-(morpholine-4-carbonyl)-phenyl]-1H-[1,2,3]triazol-4-yl}-2-oxo-1,2-dihydro-quinoline-7-carbonitrile]",6.77,7.24
"CN1CCN(C(=O)c2ccc(-n3cc(-c4cc5cc(F)ccc5[nH]c4=O)nn3)cc2)CCC1=O [A110, 6-fluoro-3-{1-[4-(4-methyl-5-oxo-[1,4]diazepane-1-carbonyl)-phenyl]-1H-[1,2,3]triazol-4-yl}-1H-quinolin-2-one]",7.41,7.55
"O=C(c1ccc(-n2cc(-c3cc4cc(Cl)ccc4[nH]c3=O)nn2)cc1)N1CCC[C@H]1CO [A246, 6-chloro-3-{1-[4-((S)-2-hydroxymethyl-pyrrolidine-1-carbonyl)-phenyl]-1H-[1,2,3]triazol-4-yl}-1H-quinolin-2-one]",7.64,8.13
"CN1CCC(COc2ccc(-n3cc(-c4cc5ccccc5[nH]c4=O)nn3)cc2)CC1 [A60, 3-{1-[4-(1-methyl-piperidin-4-ylmethoxy)-phenyl]-1H-[1,2,3]triazol-4-yl}-1H-quinolin-2-one]",7.42,7.48
"O=C(c1ccc(-n2cc(-c3cc4cc(F)ccc4[nH]c3=O)nn2)cc1)N1CCN(C2COC2)CC1 [A230, 6-fluoro-3-{1-[4-(4-oxetan-3-yl-piperazine-1-carbonyl)-phenyl]-1H-[1,2,3]triazol-4-yl}-1H-quinolin-2-one]",7.31,7.02
